Source: PMC11576293, “New series of 4,6-diaryl pyrimidines: facile synthesis and antiproliferative activity as dual EGFR/VEGFR-2 inhibitors” (Frontiers in Chemistry, 2024)

Tests used:
Assay in all cases: NCI-60 single-dose screen
Format in all cases: cell-based
TK-10 = details: Homo sapiens, single dose 10 µM, '-' = no inhibition, read-out: % Growth Inhibition
Procedure, shortened: (§1)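 Single concentration of 10 μM applied to every line of the 60-cell-line NCI panel. Testing performed by NCI DTP.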

A498 = details: Homo sapiens, single dose 10 µM, '-' = no inhibition, read-out: % Growth Inhibition
Procedure, shortened: as §1

UO-31 = details: Homo sapiens, single dose 10 µM, '-' = no inhibition, read-out: % Growth Inhibition
Procedure, shortened: as §1

OVCAR-4 = details: Homo sapiens, single dose 10 µM, '-' = no inhibition, read-out: % Growth Inhibition
Procedure, shortened: as §1

SK-MEL-28 = details: Homo sapiens, single dose 10 µM, '-' = no inhibition, read-out: % Growth Inhibition
Procedure, shortened: as §1

NCI-H23 = details: Homo sapiens, single dose 10 µM, '-' = no inhibition, read-out: % Growth Inhibition
Procedure, shortened: as §1

SK-MEL-2 = details: Homo sapiens, single dose 10 µM, '-' = no inhibition, read-out: % Growth Inhibition
Procedure, shortened: as §1

HCT-116 = details: Homo sapiens, single dose 10 µM, '-' = no inhibition, read-out: % Growth Inhibition
Procedure, shortened: as §1

LOX IMVI = details: Homo sapiens, single dose 10 µM, '-' = no inhibition, read-out: % Growth Inhibition
Procedure, shortened: as §1

SN12C = details: Homo sapiens, single dose 10 µM, '-' = no inhibition, read-out: % Growth Inhibition
Procedure, shortened: as §1

MCF7 = details: Homo sapiens, single dose 10 µM, '-' = no inhibition, read-out: % Growth Inhibition
Procedure, shortened: as §1

RPMI-8226 = details: Homo sapiens, single dose 10 µM, '-' = no inhibition, read-out: % Growth Inhibition
Procedure, shortened: as §1

K-562 = details: Homo sapiens, K562, single dose 10 µM, '-' = no inhibition, read-out: % Growth Inhibition
Procedure, shortened: as §1

KM12 = details: Homo sapiens, single dose 10 µM, '-' = no inhibition, read-out: % Growth Inhibition
Procedure, shortened: as §1

MALME-3M = details: Homo sapiens, single dose 10 µM, '-' = no inhibition, read-out: % Growth Inhibition
Procedure, shortened: as §1

SF-268 = details: Homo sapiens, single dose 10 µM, '-' = no inhibition, read-out: % Growth Inhibition
Procedure, shortened: as §1

CAKI-1 = details: Homo sapiens, single dose 10 µM, '-' = no inhibition, read-out: % Growth Inhibition
Procedure, shortened: as §1

MDA-MB-435 = details: Homo sapiens, single dose 10 µM, '-' = no inhibition, read-out: % Growth Inhibition
Procedure, shortened: as §1

RXF 393 = details: Homo sapiens, single dose 10 µM, '-' = no inhibition, read-out: % Growth Inhibition
Procedure, shortened: as §1

NCI-H522 = details: Homo sapiens, single dose 10 µM, '-' = no inhibition, read-out: % Growth Inhibition
Procedure, shortened: as §1

SNB-75 = details: Homo sapiens, single dose 10 µM, '-' = no inhibition, read-out: % Growth Inhibition
Procedure, shortened: as §1

IGROV1 = details: Homo sapiens, IGROV-1, single dose 10 µM, '-' = no inhibition, read-out: % Growth Inhibition
Procedure, shortened: as §1

MDA-MB231/ATCC = details: Homo sapiens, MDA-MB-231, single dose 10 µM, '-' = no inhibition, read-out: % Growth Inhibition
Procedure, shortened: as §1

SNB-19 = details: Homo sapiens, single dose 10 µM, '-' = no inhibition, read-out: % Growth Inhibition
Procedure, shortened: as §1

HL-60(TB) = details: Homo sapiens, single dose 10 µM, '-' = no inhibition, read-out: % Growth Inhibition
OVCAR-3 = details: Homo sapiens, single dose 10 µM, '-' = no inhibition, read-out: % Growth Inhibition
Procedure, shortened: as §1

SR = details: Homo sapiens, single dose 10 µM, '-' = no inhibition, read-out: % Growth Inhibition
Procedure, shortened: as §1

OVCAR-5 = details: Homo sapiens, single dose 10 µM, '-' = no inhibition, read-out: % Growth Inhibition
Procedure, shortened: as §1

SK-MEL-5 = details: Homo sapiens, single dose 10 µM, '-' = no inhibition, read-out: % Growth Inhibition
Procedure, shortened: as §1

HOP-92 = details: Homo sapiens, single dose 10 µM, '-' = no inhibition, read-out: % Growth Inhibition
Procedure, shortened: as §1

DU-145 = details: Homo sapiens, single dose 10 µM, '-' = no inhibition, read-out: % Growth Inhibition
Procedure, shortened: as §1

HCC-2998 = details: Homo sapiens, single dose 10 µM, '-' = no inhibition, read-out: % Growth Inhibition
Procedure, shortened: as §1

COLO 205 = details: Homo sapiens, single dose 10 µM, '-' = no inhibition, read-out: % Growth Inhibition
Procedure, shortened: as §1

786-0 = details: Homo sapiens, single dose 10 µM, '-' = no inhibition, read-out: % Growth Inhibition
Procedure, shortened: as §1

U251 = details: Homo sapiens, U-251, single dose 10 µM, '-' = no inhibition, read-out: % Growth Inhibition
Procedure, shortened: as §1

MDA-MB-468 = details: Homo sapiens, single dose 10 µM, '-' = no inhibition, read-out: % Growth Inhibition
Procedure, shortened: as §1

ACHN 1 = details: Homo sapiens, single dose 10 µM, '-' = no inhibition, read-out: % Growth Inhibition
Procedure, shortened: as §1

OVCAR-8 = details: Homo sapiens, single dose 10 µM, '-' = no inhibition, read-out: % Growth Inhibition
Procedure, shortened: as §1

HOP-62 = details: Homo sapiens, single dose 10 µM, '-' = no inhibition, read-out: % Growth Inhibition
Procedure, shortened: as §1

NCI-H460 = details: Homo sapiens, single dose 10 µM, '-' = no inhibition, read-out: % Growth Inhibition
Procedure, shortened: as §1

UACC-257 = details: Homo sapiens, single dose 10 µM, '-' = no inhibition, read-out: % Growth Inhibition
Procedure, shortened: as §1

NCI/ADR-RES = details: Homo sapiens, single dose 10 µM, '-' = no inhibition, read-out: % Growth Inhibition
Procedure, shortened: as §1

UACC-62 = details: Homo sapiens, single dose 10 µM, '-' = no inhibition, read-out: % Growth Inhibition
Procedure, shortened: as §1

EKVX = details: Homo sapiens, single dose 10 µM, '-' = no inhibition, read-out: % Growth Inhibition
Procedure, shortened: as §1

NCI-H322M = details: Homo sapiens, single dose 10 µM, '-' = no inhibition, read-out: % Growth Inhibition
Procedure, shortened: as §1

BT-549 = details: Homo sapiens, single dose 10 µM, '-' = no inhibition, read-out: % Growth Inhibition
Procedure, shortened: as §1

A549/ATCC = details: Homo sapiens, single dose 10 µM, '-' = no inhibition, read-out: % Growth Inhibition
Procedure, shortened: as §1

PC-3 = details: Homo sapiens, single dose 10 µM, '-' = no inhibition, read-out: % Growth Inhibition
Procedure, shortened: as §1

SMILES: C=CCSc1nc(-c2ccc(OC)cc2)cc(-c2cccc(OC)c2)n1 [Compound 20, 2-(Allylthio)-6-(3-methoxyphenyl)-4-(4-methoxyphenyl)pyrimidine]
- inhibition at 10 µM (TK-10): < 0%
- inhibition at 10 µM (A498): < 0%
- inhibition at 10 µM (UO-31): 13.2%
- inhibition at 10 µM (OVCAR-4): 5.65%
- inhibition at 10 µM (SK-MEL-28): < 0%
- inhibition at 10 µM (NCI-H23): 1.43%
- inhibition at 10 µM (SK-MEL-2): < 0%
- inhibition at 10 µM (HCT-116): 5.47%
- inhibition at 10 µM (LOX IMVI): 7.36%
- inhibition at 10 µM (SN12C): 6.16%
- inhibition at 10 µM (MCF7): 12.5%
- inhibition at 10 µM (RPMI-8226): 4.53%
- inhibition at 10 µM (K-562): 11.8%
- inhibition at 10 µM (KM12): < 0%
- inhibition at 10 µM (MALME-3M): < 0%
- inhibition at 10 µM (SF-268): < 0%
- inhibition at 10 µM (CAKI-1): 7.19%
- inhibition at 10 µM (MDA-MB-435): 1.82%
- inhibition at 10 µM (RXF 393): < 0%
- inhibition at 10 µM (NCI-H522): 8.49%
- inhibition at 10 µM (SNB-75): < 0%
- inhibition at 10 µM (IGROV1): < 0%
- inhibition at 10 µM (MDA-MB231/ATCC): < 0%
- inhibition at 10 µM (SNB-19): 5.77%
- inhibition at 10 µM (HL-60(TB)): 31.3%
- inhibition at 10 µM (OVCAR-3): < 0%
- inhibition at 10 µM (SR): 13%
- inhibition at 10 µM (OVCAR-5): < 0%
- inhibition at 10 µM (SK-MEL-5): 1.41%
- inhibition at 10 µM (HOP-92): < 0%
- inhibition at 10 µM (DU-145): < 0%
- inhibition at 10 µM (HCC-2998): 2.37%
- inhibition at 10 µM (COLO 205): < 0%
- inhibition at 10 µM (786-0): < 0%
- inhibition at 10 µM (U251): < 0%
- inhibition at 10 µM (MDA-MB-468): 1.99%
- inhibition at 10 µM (ACHN 1): < 0%
- inhibition at 10 µM (OVCAR-8): 0.92%
- inhibition at 10 µM (HOP-62): < 0%
- inhibition at 10 µM (NCI-H460): < 0%
- inhibition at 10 µM (UACC-257): < 0%
- inhibition at 10 µM (NCI/ADR-RES): < 0%
- inhibition at 10 µM (UACC-62): 18.8%
- inhibition at 10 µM (EKVX): 4.8%
- inhibition at 10 µM (NCI-H322M): < 0%
- inhibition at 10 µM (BT-549): < 0%
- inhibition at 10 µM (A549/ATCC): 1.93%
- inhibition at 10 µM (PC-3): < 0%

SMILES: COc1ccc(-c2cc(-c3ccc(Cl)cc3)nc(SC)n2)cc1OC [Compound 23, 4-(4-Chlorophenyl)-6-(3,4-dimethoxyphenyl)-2-(methylthio)pyrimidine]
- inhibition at 10 µM (TK-10): < 0%
- inhibition at 10 µM (A498): < 0%
- inhibition at 10 µM (UO-31): 22.9%
- inhibition at 10 µM (OVCAR-4): 27.5%
- inhibition at 10 µM (SK-MEL-28): 8.87%
- inhibition at 10 µM (NCI-H23): 7.41%
- inhibition at 10 µM (SK-MEL-2): 8.95%
- inhibition at 10 µM (HCT-116): 33.7%
- inhibition at 10 µM (LOX IMVI): 15%
- inhibition at 10 µM (SN12C): 20.2%
- inhibition at 10 µM (MCF7): 23.9%
- inhibition at 10 µM (RPMI-8226): 20.1%
- inhibition at 10 µM (K-562): 39%
- inhibition at 10 µM (KM12): 25.4%
- inhibition at 10 µM (MALME-3M): < 0%
- inhibition at 10 µM (SF-268): 11.5%
- inhibition at 10 µM (CAKI-1): 24%
- inhibition at 10 µM (MDA-MB-435): 18%
- inhibition at 10 µM (RXF 393): < 0%
- inhibition at 10 µM (NCI-H522): 31.2%
- inhibition at 10 µM (SNB-75): < 0%
- inhibition at 10 µM (IGROV1): < 0%
- inhibition at 10 µM (MDA-MB231/ATCC): 23.2%
- inhibition at 10 µM (SNB-19): 3.67%
- inhibition at 10 µM (HL-60(TB)): 18.4%
- inhibition at 10 µM (OVCAR-3): < 0%
- inhibition at 10 µM (SR): 34%
- inhibition at 10 µM (OVCAR-5): 11.9%
- inhibition at 10 µM (SK-MEL-5): 24.5%
- inhibition at 10 µM (HOP-92): < 0%
- inhibition at 10 µM (DU-145): 9.83%
- inhibition at 10 µM (HCC-2998): < 0%
- inhibition at 10 µM (COLO 205): 8.14%
- inhibition at 10 µM (786-0): 6.05%
- inhibition at 10 µM (U251): 11.6%
- inhibition at 10 µM (MDA-MB-468): 6.77%
- inhibition at 10 µM (ACHN 1): 9.14%
- inhibition at 10 µM (OVCAR-8): 3.78%
- inhibition at 10 µM (HOP-62): < 0%
- inhibition at 10 µM (NCI-H460): 11.4%
- inhibition at 10 µM (UACC-257): 10%
- inhibition at 10 µM (NCI/ADR-RES): 14.9%
- inhibition at 10 µM (UACC-62): < 0%
- inhibition at 10 µM (EKVX): 23.1%
- inhibition at 10 µM (NCI-H322M): < 0%
- inhibition at 10 µM (BT-549): 4.8%
- inhibition at 10 µM (A549/ATCC): 19.8%
- inhibition at 10 µM (PC-3): 15.7%
